Results published in patent publication US12258547B2, “Cell culture plate, method for preparing thereof and method for detecting a substance” (UPM-Kymmene Corporation, priority 2019, dated 2025).
Counter-ions that a name gives are not always drawn.

Tests used:
[1] = tested on: BJ fibroblasts; test: Experiment 1: WST-1 viability of BJ fibroblast monoculture, direct exposure; details: for toxicity to BJ fibroblast monocultures: drug as such, without HepaRG treatment
Excerpt: (§1) Cell viability/cytotoxicity was always investigated using WST-1 assay. The assay principle is based on the conversion of the tetrazolium salt WST-1 into a colored dye by mitochondrial dehydrogenase enzymes. The soluble salt is released into the media. Within a given time period, the reaction produces a color change which is directly proportional to the amount of mitochondrial dehydrogenase in a given culture. As a result, the assay actually measures the net metabolic activity of cells. Theoretically, this is reflective of cell number • the more cells, the more dehydrogenase available to reduce the reagent.
(§2) BJ cell suspension was prepared at a density of 40 000 cells/ml in BJ cell culture medium. 100 μl of this suspension was pipetted to a 96-well plate resulting in 4000 cells/well.
(§3) Selegiline and paracetamol dilutions were prepared on the day of use. First, 1 mg/ml stocks were prepared from both drugs, then 200 and 20 μg/ml dilutions were prepared from paracetamol stock, and 200, 20, 10, 5 and 2 μg/ml dilutions from selegiline stock. The stocks and dilutions were prepared in BJ chemical dilution medium. Selegiline toxicity was studied more extensively than paracetamol, because there was no previous data of selegiline toxicity to BJ fibroblasts. Instead, paracetamol toxicity to human BJ fibroblasts has been extensively studied.
(§4) BJ cell culture medium was removed from the cells by dumping and blotting the plate carefully on sterile towel. Immediately, 50 μl BJ cell culture medium was added to all wells, and then 50 μl test item dilutions (selegiline or paracetamol) or 50 μl vehicle control. […] BJ chemical dilution medium was used as vehicle control. […] One of the plates was incubated for 3 hrs and the other for 20 hrs.
(§5) After the 3-hours or 20 hrs incubation, 10 μl WST-1 reagent was added into the wells. The plate was incubated for 2 hrs, thereafter absorbance was read at 450 nm.
(§6) Blank values (contained all reagents, including drugs, but no cells) were subtracted from the absorbance data. […] The statistical difference between untreated control and treated cells was assessed using t-test (SigmaPiot).

[2] = tested on: BJ fibroblasts; test: Experiments 2-3: HepaRG/BJ co-culture separated by GrowDex barrier, dosing via HepaRG, WST-1, BJ side; details: for MEAN absorbance at 450 nm / MEDIAN absorbance at 450 nm / viability, % of control: BJ cells
Excerpt: as §1, with “reagent. […]” for “reagent.”
(§7) The mean absorbances were calculated separately for each well and both sides of the barrier. The decision on the acceptability of the data was made individually for each well. The data of the well was accepted provided that the barrier functioned properly, i.e. the ratio of HepaRG and BJ absorbances at 450 nm was >2.0.
(§8) GrowDex barriers were prepared to split the wells of a 24-well plate into two “equally sized” compartments as follows. 250 μl GrowDex was pipetted to the wells (using positive displacement pipette) to construct the first layer of the barrier. The barriers were left to dry in the laminar hood for 1 hr with the lid open. Then a second layer was pipetted on the top of the first layer.
(§9) BJ cell suspension was prepared at a density of 70 000 cells/ml BJ cell culture medium, and 150 μl of this suspension was pipetted to the right side of the barriers resulting in 10 500 cells/well.
(§10) HepaRG suspension was prepared at a density of 2 million HepaRG cells/ml HepaRG® Thawing/Plating/General Purpose Medium 670. Medium was removed from the left side of the barrier. 150 μl HepaRG suspension, i.e., 300 000 cells was added to each well. The plate was gently agitated in back-and-forth and side-to-side manner, and the homogeneity of the cell distribution was ensured visually. The plate was placed back into cell culture incubator and the cells were let recover for 4 hrs before exposure.
(§11) Medium was carefully removed from the HepaRG cells (left side of the barrier), and replaced with 75 μl/well HepaRG TOX Medium/well. This was performed one well at a time.

[3] = Experiments 2-3: HepaRG/BJ co-culture separated by GrowDex barrier, dosing via HepaRG, WST-1, HepaRG side; type: cell-based; details: human
Experimental: (§12) The soluble salt is released into the media.
(§13) Eight barriers were prepared using this method. […] Four barriers were prepared using this method.
(§14) The plate was incubated for 1 hr.
(§15) This was performed one well at a time.
(§16) Absorbance was read using the Multipoint measurement.

[4] = tested on: HepaRG cells; test: as above; type: cell-based; details: for MEAN absorbance at 450 nm / MEDIAN absorbance at 450 nm / viability, % of control: HepaRG
Experimental: as §12, §13, §14, §15, §16

[5] = tested on: BJ fibroblasts; test: Experiment 4: BJ cells exposed to direct or HepaRG-conditioned paracetamol, WST-1; type: cell-based, Human; details: 500 μg/ml, conditioned 20 hrs with HepaRG, 24 hrs exposure
Experimental: The HepaRG cells that were left from Experiment 3 were seeded to a 25 cm^2 cell culture flask, and cultured for 1 week. Medium (HepaRG induction medium) was renewed twice during the week.
The medium was removed from HepaRG cells (grown in a 25 cm^2 flask), and replaced by 2.5 ml of HepaRG TOX medium. Then 2.5 ml of 1 mg/ml paracetamol prepared in HepaRG TOX medium was added to the flask (final paracetamol concentration 500 μg/ml). HepaRG cells were incubated with paracetamol for 20 hrs.
The medium was removed from BJ cells, and replaced by 500 μg/ml paracetamol in BJ chemical dilution medium or 500 μg/ml HepaRG-conditioned-paracetamol in HepaRG TOX-medium. BJ chemical dilution medium and HepaRG TOX medium served as vehicle controls. All treatments were tested in 16 parallel wells. The exposure time was 24 hrs.
After the exposure, 10 μl WST-1 reagent was added to the wells. The plate was incubated for 2 hrs, and the absorbance was read at 450 nm.

[6] = Experiment 1: WST-1 viability of BJ fibroblast monoculture, direct exposure; details: human
Excerpt: as §1, §2, §3, §4, §5, §6

[7] = Experiments 2-3: HepaRG/BJ co-culture separated by GrowDex barrier, dosing via HepaRG, WST-1, BJ side; details: human, decrease of BJ viability, 10 μg/ml via HepaRG, 3 hrs
Excerpt: as §1, with “reagent. […]” for “reagent.”
as §7, §8, §9, §10, §11

[8] = 250 μg/ml paracetamol via HepaRG, 4 hrs
[9] = 250 μg/ml paracetamol via HepaRG, 20 hrs
[10] = 500 μg/ml paracetamol via HepaRG, 4 hrs
[11] = 500 μg/ml paracetamol via HepaRG, 20 hrs
[12] = 1 μg/ml selegiline via HepaRG, 3 hrs
[13] = 5 μg/ml selegiline via HepaRG, 3 hrs
[14] = 10 μg/ml selegiline via HepaRG, 3 hrs

CC(=O)Nc1ccc(O)cc1 [paracetamol, Paracetamol]
increase of BJ cell viability ([1]; 500 μg/ml, 3 hrs exposure): ~9%
toxicity to BJ fibroblast monocultures [1]: not toxic
effect on viability of BJ fibroblasts ([1]; up to 500 μg/ml, 3 and 20 hrs): did not reduce the viability
increase of BJ cell viability ([2]; 250 μg/ml via HepaRG, 4 hrs): ~40%
increase of BJ viability ([2]; 250 μg/ml via HepaRG, 20 hrs): ~30%
effect on BJ cell viability ([2]; 500 μg/ml via HepaRG, short exposure (4 hrs)): did not affect cell viability
MEAN absorbance at 450 nm [2, 8]: 1.685
MEDIAN absorbance at 450 nm [2, 8]: 1.777
viability, % of control [2, 8]: 140.89 % of control
MEAN absorbance at 450 nm [2, 9]: 1.777
MEDIAN absorbance at 450 nm [2, 9]: 1.801
viability, % of control [2, 9]: 128.23 % of control
MEAN absorbance at 450 nm [2, 10]: 1.188
MEDIAN absorbance at 450 nm [2, 10]: 1.164
viability, % of control [2, 10]: 99.34 % of control
MEAN absorbance at 450 nm [2, 11]: 1.356
MEDIAN absorbance at 450 nm [2, 11]: 1.325
viability, % of control [2, 11]: 97.89 % of control
cytotoxicity at 4 h, 250 μg/ml ([3]; 250 μg/ml, 4 hrs, read-out: decrease of HepaRG viability): ~15%
cytotoxicity at 20 h, 500 μg/ml ([3]; highest concentration (500 μg/ml), 20 hrs, read-out: reduction of HepaRG viability): ~10%
effect on HepaRG cell viability ([4]; 500 μg/ml, short exposure (4 hrs)): did not affect cell viability
MEAN absorbance at 450 nm ([4]; 250 μg/ml paracetamol, 4 hrs): 3.571
MEDIAN absorbance at 450 nm ([4]; 250 μg/ml paracetamol, 4 hrs): 3.513
viability, % of control ([4]; 250 μg/ml paracetamol, 4 hrs): 85.58 % of control
MEAN absorbance at 450 nm ([4]; 250 μg/ml paracetamol, 20 hrs): 4.196
MEDIAN absorbance at 450 nm ([4]; 250 μg/ml paracetamol, 20 hrs): 4.239
viability, % of control ([4]; 250 μg/ml paracetamol, 20 hrs): 105.78 % of control
MEAN absorbance at 450 nm ([4]; 500 μg/ml paracetamol, 4 hrs): 4.074
MEDIAN absorbance at 450 nm ([4]; 500 μg/ml paracetamol, 4 hrs): 4.134
viability, % of control ([4]; 500 μg/ml paracetamol, 4 hrs): 97.65 % of control
MEAN absorbance at 450 nm ([4]; 500 μg/ml paracetamol, 20 hrs): 3.606
MEDIAN absorbance at 450 nm ([4]; 500 μg/ml paracetamol, 20 hrs): 3.771
viability, % of control ([4]; 500 μg/ml paracetamol, 20 hrs): 90.91 % of control
effect of HepaRG-treatment on BJ fibroblast viability [5]: minor effect

C#CCN(C)[C@H](C)Cc1ccccc1 [selegiline, Selegiline hydrochloride]
cytotoxicity at 500 μg/ml [6]: ~10%
toxicity to BJ fibroblast monocultures [1]: not toxic
increase of BJ fibroblast viability ([1]; lowest selegiline concentrations): ~10%
cytotoxicity at 3 h, 10 μg/ml [7]: ~25%
effect on BJ viability ([2]; 1 and 5 μg/ml via HepaRG, 3 hrs): seemed to increase
MEAN absorbance at 450 nm [2, 12]: 1.429
MEDIAN absorbance at 450 nm [2, 12]: 1.539
viability, % of control [2, 12]: 141.43 % of control
MEAN absorbance at 450 nm [2, 13]: 1.219
MEDIAN absorbance at 450 nm [2, 13]: 1.243
viability, % of control [2, 13]: 120.69 % of control
MEAN absorbance at 450 nm [2, 14]: 0.760
MEDIAN absorbance at 450 nm [2, 14]: 0.676
viability, % of control [2, 14]: 75.19 % of control
cytotoxicity at 3 h, 10 μg/ml ([3]; 10 μg/ml, 3 hrs, read-out: decrease of HepaRG viability): ~5%
effect on HepaRG viability ([4]; 1 and 5 μg/ml, 3 hrs): seemed to increase
MEAN absorbance at 450 nm ([4]; 1 μg/ml selegiline, 3 hrs): 3.486
MEDIAN absorbance at 450 nm ([4]; 1 μg/ml selegiline, 3 hrs): 3.794
viability, % of control ([4]; 1 μg/ml selegiline, 3 hrs): 114.23 % of control
MEAN absorbance at 450 nm ([4]; 5 μg/ml selegiline, 3 hrs): 3.344
MEDIAN absorbance at 450 nm ([4]; 5 μg/ml selegiline, 3 hrs): 3.588
viability, % of control ([4]; 5 μg/ml selegiline, 3 hrs): 109.57 % of control
MEAN absorbance at 450 nm ([4]; 10 μg/ml selegiline, 3 hrs): 2.892
MEDIAN absorbance at 450 nm ([4]; 10 μg/ml selegiline, 3 hrs): 3.078
viability, % of control ([4]; 10 μg/ml selegiline, 3 hrs): 94.77 % of control
